{"source": "paper PMC3914206", "type_in_all_cases": "binding", "conditions_in_all_cases": "Compound Concentration 10 µM", "key": {"[1]": {"target": "T1, panel of 442 kinases (Homo sapiens, UniProt P06241)", "T1 construct": "purchased KINOMEscan", "T1 sequence (P06241 whole entry)": "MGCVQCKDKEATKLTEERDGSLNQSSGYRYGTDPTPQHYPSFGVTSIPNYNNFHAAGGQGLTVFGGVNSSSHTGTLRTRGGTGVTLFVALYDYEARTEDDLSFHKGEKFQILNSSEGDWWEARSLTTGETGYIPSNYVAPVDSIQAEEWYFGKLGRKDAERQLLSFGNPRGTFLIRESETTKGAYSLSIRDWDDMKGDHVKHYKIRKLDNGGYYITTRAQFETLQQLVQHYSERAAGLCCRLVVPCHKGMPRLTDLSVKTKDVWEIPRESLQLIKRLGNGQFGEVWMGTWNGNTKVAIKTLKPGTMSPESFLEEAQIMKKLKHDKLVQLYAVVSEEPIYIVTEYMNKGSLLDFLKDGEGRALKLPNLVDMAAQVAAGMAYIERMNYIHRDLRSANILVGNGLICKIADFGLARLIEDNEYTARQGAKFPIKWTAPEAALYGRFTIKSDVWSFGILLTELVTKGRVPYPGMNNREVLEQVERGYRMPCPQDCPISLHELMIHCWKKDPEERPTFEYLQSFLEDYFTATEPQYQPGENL", "from_the_text": "(§1) We assessed the selectivity of members of this scaffold using the KINOMEscan methodology across a near comprehensive panel of 442 kinases [[18,27]]."}, "[2]": {"target": "T2, panel of 442 kinases (Homo sapiens, UniProt Q8N4C8)", "T2 construct": "purchased KINOMEscan", "T2 sequence (Q8N4C8 whole entry)": "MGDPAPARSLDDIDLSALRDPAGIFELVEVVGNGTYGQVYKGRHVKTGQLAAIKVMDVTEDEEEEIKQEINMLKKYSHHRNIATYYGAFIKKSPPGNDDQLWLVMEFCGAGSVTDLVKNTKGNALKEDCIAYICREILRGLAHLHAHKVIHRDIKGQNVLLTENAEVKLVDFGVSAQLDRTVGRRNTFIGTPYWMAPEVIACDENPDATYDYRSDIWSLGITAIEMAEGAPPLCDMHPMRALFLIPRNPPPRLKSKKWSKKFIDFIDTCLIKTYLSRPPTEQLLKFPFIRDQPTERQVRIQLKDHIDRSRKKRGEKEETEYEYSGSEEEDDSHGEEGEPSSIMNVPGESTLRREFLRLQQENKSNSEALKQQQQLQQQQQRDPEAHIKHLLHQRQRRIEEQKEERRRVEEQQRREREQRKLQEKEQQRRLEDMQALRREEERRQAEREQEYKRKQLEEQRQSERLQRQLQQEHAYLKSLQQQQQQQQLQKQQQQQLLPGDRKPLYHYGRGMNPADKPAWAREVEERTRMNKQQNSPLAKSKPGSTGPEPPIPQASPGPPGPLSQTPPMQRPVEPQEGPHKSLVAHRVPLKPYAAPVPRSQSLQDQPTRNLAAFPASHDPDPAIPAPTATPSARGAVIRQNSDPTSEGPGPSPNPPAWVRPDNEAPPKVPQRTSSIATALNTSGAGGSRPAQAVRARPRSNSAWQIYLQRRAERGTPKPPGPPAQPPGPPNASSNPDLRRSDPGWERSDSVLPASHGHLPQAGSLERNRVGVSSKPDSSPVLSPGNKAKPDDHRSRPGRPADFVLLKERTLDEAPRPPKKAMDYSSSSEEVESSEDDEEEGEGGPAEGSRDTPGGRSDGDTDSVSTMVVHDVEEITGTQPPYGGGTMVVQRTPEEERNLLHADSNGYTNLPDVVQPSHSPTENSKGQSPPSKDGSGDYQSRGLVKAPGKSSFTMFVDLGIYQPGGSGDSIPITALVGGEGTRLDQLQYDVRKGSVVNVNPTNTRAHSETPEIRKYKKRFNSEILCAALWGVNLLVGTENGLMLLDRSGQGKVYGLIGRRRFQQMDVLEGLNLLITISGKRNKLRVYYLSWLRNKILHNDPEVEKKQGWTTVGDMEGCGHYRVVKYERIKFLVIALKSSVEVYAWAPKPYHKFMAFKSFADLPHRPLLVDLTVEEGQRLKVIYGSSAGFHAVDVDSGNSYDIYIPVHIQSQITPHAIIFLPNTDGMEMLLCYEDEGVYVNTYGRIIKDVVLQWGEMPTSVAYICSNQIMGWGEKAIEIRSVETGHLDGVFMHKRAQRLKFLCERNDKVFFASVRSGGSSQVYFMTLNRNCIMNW", "from_the_text": "as §1"}, "[3]": {"target": "T3, panel of 442 kinases (Homo sapiens, UniProt Q8TD08)", "T3 construct": "purchased KINOMEscan", "T3 sequence (Q8TD08 1-544)": "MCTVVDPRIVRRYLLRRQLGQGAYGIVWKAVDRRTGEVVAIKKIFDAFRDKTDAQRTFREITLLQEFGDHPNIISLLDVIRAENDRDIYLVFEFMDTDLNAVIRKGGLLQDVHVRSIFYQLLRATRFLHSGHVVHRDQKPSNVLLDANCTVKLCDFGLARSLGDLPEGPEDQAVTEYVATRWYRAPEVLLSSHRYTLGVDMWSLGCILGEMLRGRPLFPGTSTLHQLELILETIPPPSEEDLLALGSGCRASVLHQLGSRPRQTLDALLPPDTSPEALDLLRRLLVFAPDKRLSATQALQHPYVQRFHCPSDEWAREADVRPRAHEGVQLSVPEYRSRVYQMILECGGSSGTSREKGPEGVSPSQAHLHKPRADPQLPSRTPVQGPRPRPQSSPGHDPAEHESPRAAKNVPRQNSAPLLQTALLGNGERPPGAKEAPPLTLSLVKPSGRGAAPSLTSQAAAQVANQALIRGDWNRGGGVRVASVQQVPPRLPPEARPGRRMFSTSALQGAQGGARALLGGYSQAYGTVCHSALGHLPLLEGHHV", "from_the_text": "as §1"}}, "data": [{"smiles": "CCOc1cc(C(=O)N2CCC(N3CCN(C)CC3)CC2)ccc1Nc1ncc2c(n1)N(C1CCCC1)c1ccccc1C(=O)N2C", "note": "[Compound 26]", "values": [{"measurement": "KINOMEscan: FYN", "setting": "[1]", "value": 78}, {"measurement": "KINOMEscan: MINK", "setting": "[2]", "value": 100}, {"measurement": "KINOMEscan: ERK8", "setting": "[3]", "value": 100}]}, {"smiles": "COc1cc(C(=O)N2CCC(N3CCN(C)CC3)CC2)ccc1Nc1ncc2c(n1)N(C1CCCC1)c1ccccc1C(=O)N2C", "note": "[Compound 25, 11-cyclopentyl-2-((2-methoxy-4-(4-(4-methylpiperazin-1-yl)piperidine-1-carbonyl)phenyl)amino)-5-methyl-5H-benzo[e]pyrimido[5,4-b][1,4]diazepin-6(11H)-one]", "values": [{"measurement": "KINOMEscan: FYN", "setting": "[1]", "value": 86}, {"measurement": "KINOMEscan: MINK", "setting": "[2]", "value": 100}, {"measurement": "KINOMEscan: ERK8", "setting": "[3]", "value": 99}]}, {"smiles": "COc1cc(C(=O)N2CCC(N3CCN(C)CC3)CC2)ccc1Nc1ncc2c(n1)N1CCc3cccc(c31)C(=O)N2C", "note": "[Compound 24]", "values": [{"measurement": "KINOMEscan: FYN", "setting": "[1]", "value": 82}, {"measurement": "KINOMEscan: MINK", "setting": "[2]", "value": 36}]}, {"smiles": "COc1cc(C(=O)N2CCC(N3CCN(C)CC3)CC2)ccc1Nc1ncc2c(n1)N(C)c1ccccc1C(=O)N2C", "note": "[15 (LRRK2-IN-1)]", "values": [{"measurement": "KINOMEscan: FYN", "setting": "[1]", "value": 100}, {"measurement": "KINOMEscan: MINK", "setting": "[2]", "value": 77}, {"measurement": "KINOMEscan: ERK8", "setting": "[3]", "value": 100}]}]}
